From ChEMBL document CHEMBL1201862, “PubChem BioAssay data set” (2004)
Calls of active or inactive are those of the source.

Columns and labels:
[1] = biological target: T1, Short transient receptor potential channel 4 (Mus musculus, UniProt Q9QUQ5); assay: mouse TRPC4 channel activators, dose response, cell-based, HEK293 TRPC4/mu-opioid, Fluo-4 calcium (AID 434937); format: functional
T1 sequence (Q9QUQ5 whole entry): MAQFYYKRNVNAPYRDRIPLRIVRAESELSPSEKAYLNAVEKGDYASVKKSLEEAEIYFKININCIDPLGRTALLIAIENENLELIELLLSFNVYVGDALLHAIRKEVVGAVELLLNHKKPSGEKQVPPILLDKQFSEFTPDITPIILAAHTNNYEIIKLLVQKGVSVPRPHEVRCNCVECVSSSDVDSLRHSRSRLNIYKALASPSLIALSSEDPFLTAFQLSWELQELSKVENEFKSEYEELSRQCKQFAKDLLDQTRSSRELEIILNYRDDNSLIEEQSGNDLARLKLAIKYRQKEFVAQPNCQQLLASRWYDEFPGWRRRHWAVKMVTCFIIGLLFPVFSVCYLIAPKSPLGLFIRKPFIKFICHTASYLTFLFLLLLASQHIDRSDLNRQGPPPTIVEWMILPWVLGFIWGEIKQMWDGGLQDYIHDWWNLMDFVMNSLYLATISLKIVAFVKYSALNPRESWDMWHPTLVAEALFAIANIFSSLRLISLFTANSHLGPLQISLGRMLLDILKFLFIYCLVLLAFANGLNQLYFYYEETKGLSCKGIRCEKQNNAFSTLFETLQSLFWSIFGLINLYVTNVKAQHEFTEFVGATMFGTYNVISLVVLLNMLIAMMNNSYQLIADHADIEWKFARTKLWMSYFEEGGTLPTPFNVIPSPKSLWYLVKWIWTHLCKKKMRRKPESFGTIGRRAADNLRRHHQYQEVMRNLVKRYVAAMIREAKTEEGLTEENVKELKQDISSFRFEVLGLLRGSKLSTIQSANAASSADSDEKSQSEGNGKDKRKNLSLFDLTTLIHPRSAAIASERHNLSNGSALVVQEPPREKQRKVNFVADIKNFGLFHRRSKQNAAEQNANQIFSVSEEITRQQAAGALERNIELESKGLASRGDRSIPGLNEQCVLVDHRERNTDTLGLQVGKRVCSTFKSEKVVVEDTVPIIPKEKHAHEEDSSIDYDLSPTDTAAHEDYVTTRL

[2] = biological target: Heat shock protein HSP 90-alpha (Homo sapiens, UniProt P07900); format: functional, organism-based
[3] = biological target: T2, Heat shock factor protein 1 (Mus musculus, UniProt P38532); assay: inhibition of MG132-induced HSE-luciferase signal, confirmation, cell-based, NIH3T3, luminescence, dose retest (AID 2382); format: functional;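 further: NIH3T3 fibroblasts with HSF1-driven luciferase reporter stressed by proteasome inhibitor MG132; luminescence from HSF1-driven luciferase expression after 8 hours of MG132 stress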
T2 sequence (P38532 whole entry): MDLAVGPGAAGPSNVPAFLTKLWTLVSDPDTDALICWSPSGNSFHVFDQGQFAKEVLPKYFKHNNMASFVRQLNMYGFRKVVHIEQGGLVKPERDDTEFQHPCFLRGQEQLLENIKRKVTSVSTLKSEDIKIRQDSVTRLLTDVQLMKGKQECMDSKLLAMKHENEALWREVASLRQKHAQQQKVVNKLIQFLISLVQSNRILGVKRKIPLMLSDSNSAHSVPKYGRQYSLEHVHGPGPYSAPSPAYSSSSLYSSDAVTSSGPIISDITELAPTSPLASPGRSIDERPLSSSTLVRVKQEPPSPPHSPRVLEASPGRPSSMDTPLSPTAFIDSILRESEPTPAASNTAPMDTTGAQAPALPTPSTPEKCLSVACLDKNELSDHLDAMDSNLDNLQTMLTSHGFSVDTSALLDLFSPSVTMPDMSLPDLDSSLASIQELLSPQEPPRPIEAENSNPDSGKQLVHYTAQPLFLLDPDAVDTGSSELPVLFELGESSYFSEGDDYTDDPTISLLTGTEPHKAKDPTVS

[4] = microbe, parasite or virus in culture; format: functional; details: Mycobacterium tuberculosis
[5] = Shn3 3'UTR reporter inhibitors, dose response, cell-based, Clone20 osteoblasts, firefly luciferase, cherry-picked (AID 624132); format: functional;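 further: firefly luciferase luminescence from reporter carrying the Shn3 3'UTR in osteoblasts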
[6] = NIH-3T3 fibroblast cytotoxicity, dose response, cytotoxicity control, cell-based, fluorescence, Alamar Blue, secondary assay (AID 2327); format: functional;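 further: NIH-3T3 mouse fibroblasts cultured with fluconazole at 8 µg/mL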
[7] = C. albicans growth with fluconazole, confirmation, fluorescence, retest (AID 2467); format: functional, cell-based
[8] = HepG2 cell cytotoxicity, dose response, cytotoxicity control for Shn3 inhibitor project, CellTiter-Glo, cherry-picked (AID 624134); format: functional, cell-based
[9] = control 3'UTR Renilla luciferase suppression, dose response, counter-screen for Shn3 inhibitor project, cell-based, Clone20-Shn3RL, cherry-picked (AID 624133); format: functional
Aminopeptidase N = biological target: T3, Aminopeptidase N (Plasmodium falciparum FcB1/Columbia, UniProt O96935); assay: P. falciparum M1AAP inhibitors, biochemical, fluorogenic H-Leu-NHMec substrate, 1536-well (AID 1445); parameters: species or system Plasmodium falciparum 3D7, 3D7
T3 sequence (O96935 whole entry): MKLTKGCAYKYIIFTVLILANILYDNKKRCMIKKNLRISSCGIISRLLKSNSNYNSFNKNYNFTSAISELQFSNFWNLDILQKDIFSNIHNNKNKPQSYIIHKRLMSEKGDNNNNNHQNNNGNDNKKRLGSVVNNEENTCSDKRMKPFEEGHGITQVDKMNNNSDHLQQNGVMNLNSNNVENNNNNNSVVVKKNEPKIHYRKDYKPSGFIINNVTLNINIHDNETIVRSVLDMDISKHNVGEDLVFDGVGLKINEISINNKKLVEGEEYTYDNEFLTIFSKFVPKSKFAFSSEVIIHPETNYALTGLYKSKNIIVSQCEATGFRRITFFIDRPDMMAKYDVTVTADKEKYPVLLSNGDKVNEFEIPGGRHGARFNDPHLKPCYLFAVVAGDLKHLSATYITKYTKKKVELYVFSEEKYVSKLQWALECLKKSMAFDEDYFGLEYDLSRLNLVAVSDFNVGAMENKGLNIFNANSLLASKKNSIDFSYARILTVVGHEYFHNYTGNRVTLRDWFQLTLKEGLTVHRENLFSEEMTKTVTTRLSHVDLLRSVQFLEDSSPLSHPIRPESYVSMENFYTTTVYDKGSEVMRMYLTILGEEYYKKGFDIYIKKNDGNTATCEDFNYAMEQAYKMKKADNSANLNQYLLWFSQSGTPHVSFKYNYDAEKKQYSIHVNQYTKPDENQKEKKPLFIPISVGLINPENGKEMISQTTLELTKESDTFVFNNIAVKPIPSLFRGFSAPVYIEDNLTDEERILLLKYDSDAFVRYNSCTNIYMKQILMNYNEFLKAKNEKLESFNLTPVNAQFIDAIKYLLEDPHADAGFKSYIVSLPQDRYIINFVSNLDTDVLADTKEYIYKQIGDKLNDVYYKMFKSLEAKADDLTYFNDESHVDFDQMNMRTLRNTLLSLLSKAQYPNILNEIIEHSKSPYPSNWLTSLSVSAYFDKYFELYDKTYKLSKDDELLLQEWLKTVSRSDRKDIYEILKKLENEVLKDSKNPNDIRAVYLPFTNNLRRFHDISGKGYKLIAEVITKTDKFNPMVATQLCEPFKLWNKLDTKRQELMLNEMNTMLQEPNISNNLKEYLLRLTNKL

[10] = THP-1 cell cytotoxicity, dose response, cytotoxicity control for non-replicating M. tuberculosis project (AID 489025); format: functional
cells = format: functional
Cytochrome P450 3A4 = Cytochrome P450 3A4 (Homo sapiens, UniProt P08684);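 further: CYP3A4 tested as one member of a cytochrome P450 panel screen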
Chain of Cytochrome P450 3A4 (P08684 whole entry): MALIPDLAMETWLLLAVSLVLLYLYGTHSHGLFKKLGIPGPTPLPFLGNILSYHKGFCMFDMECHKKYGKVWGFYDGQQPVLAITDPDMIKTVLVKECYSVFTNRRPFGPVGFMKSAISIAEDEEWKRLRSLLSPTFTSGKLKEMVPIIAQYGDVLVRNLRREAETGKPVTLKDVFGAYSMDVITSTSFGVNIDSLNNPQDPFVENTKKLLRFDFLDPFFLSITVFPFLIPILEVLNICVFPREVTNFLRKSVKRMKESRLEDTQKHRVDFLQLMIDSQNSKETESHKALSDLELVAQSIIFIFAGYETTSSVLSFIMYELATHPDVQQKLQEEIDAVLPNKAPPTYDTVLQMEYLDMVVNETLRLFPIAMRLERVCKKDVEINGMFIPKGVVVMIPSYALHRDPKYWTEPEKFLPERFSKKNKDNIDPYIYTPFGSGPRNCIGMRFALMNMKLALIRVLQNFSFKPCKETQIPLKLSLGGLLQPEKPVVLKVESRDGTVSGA

Cytochrome P450 2C9 = Cytochrome P450 2C9 (Homo sapiens, UniProt P11712)
Chain of Cytochrome P450 2C9 (P11712 whole entry): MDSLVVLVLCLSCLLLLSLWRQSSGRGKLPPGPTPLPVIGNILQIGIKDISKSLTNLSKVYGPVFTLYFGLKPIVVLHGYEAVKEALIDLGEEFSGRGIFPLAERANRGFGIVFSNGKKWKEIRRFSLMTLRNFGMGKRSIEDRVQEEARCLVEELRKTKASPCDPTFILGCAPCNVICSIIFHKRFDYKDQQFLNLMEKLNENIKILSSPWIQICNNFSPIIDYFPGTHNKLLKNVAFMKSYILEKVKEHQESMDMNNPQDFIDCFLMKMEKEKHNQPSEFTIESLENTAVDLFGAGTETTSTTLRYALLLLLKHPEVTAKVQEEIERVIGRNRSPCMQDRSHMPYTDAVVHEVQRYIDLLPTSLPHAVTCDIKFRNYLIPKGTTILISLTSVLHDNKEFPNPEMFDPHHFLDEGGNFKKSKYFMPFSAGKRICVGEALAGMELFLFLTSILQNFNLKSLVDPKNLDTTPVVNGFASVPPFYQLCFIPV

Cytochrome P450 1A2 = biological target: T4, Cytochrome P450 1A2 (Homo sapiens, UniProt P05177);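 further: PubChem cytochrome P450 panel assay, CYP1A2 panel member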
T4 sequence (P05177 whole entry): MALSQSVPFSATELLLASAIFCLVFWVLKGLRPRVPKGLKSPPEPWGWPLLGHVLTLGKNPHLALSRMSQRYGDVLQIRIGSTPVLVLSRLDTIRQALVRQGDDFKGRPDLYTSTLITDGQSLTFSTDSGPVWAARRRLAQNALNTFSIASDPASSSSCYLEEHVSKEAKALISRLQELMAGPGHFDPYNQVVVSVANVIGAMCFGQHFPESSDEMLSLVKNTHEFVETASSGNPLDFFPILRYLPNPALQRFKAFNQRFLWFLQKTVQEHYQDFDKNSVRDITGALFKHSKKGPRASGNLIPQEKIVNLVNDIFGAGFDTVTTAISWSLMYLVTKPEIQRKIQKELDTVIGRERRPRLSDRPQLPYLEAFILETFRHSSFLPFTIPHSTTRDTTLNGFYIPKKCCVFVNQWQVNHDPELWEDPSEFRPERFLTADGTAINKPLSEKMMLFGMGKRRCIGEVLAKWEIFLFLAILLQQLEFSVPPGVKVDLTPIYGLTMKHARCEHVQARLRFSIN

Vero = assay: cells; format: functional; details: Chlorocebus sabaeus
Cytochrome P450 2D6 = Cytochrome P450 2D6 (Homo sapiens, UniProt P10635);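 further: CYP2D6 member of a cytochrome P450 panel assay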
Chain of Cytochrome P450 2D6 (P10635 whole entry): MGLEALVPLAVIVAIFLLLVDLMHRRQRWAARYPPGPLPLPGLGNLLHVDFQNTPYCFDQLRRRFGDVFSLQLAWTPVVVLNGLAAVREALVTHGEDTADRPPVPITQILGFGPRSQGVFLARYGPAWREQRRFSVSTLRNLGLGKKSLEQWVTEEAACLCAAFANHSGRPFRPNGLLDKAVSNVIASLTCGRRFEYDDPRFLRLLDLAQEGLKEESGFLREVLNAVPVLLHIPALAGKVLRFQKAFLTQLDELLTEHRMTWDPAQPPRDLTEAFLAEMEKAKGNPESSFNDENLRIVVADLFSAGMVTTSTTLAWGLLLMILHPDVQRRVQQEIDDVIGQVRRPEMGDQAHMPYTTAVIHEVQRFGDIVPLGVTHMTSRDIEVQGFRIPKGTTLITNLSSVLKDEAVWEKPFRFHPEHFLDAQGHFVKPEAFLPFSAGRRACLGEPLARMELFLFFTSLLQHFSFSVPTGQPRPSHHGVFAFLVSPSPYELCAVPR

Cytochrome P450 2C19 = Cytochrome P450 2C19 (Homo sapiens, UniProt P33261); assay: Cytochrome panel assay with activity outcomes. Panel member name: p450-cyp2c19 Compounds with AC50 equal or less than 10 uM are considered active; format: functional; details: read-out: AC50
Chain of Cytochrome P450 2C19 (P33261 whole entry): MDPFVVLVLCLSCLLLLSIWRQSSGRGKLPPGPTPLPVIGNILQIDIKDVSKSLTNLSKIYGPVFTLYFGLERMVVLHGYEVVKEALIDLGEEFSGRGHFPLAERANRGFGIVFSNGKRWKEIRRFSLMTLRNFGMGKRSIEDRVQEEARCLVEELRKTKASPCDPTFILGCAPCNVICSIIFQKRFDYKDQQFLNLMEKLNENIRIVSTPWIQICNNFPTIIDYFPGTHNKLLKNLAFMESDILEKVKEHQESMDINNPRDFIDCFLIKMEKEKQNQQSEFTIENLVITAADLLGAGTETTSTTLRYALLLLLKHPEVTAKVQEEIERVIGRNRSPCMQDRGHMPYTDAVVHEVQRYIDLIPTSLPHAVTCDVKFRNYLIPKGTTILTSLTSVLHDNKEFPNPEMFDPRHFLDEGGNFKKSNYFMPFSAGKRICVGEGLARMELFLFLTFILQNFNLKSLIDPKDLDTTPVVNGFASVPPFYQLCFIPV

Prothrombin = Prothrombin (Homo sapiens, UniProt P00734); assay: Thrombin 1536 HTS Dose Response Confirmation. [Related pubchem assays: 1046 (Thrombin 1536 HTS; hits were confirmed in this assay)]; format: functional
[11] = biological target: T5, Rac GTPase-activating protein 1 (Homo sapiens, UniProt Q9H0H5); assay: MgcRacGAP GTPase-activating activity inhibitors, confirmation, biochemical, ADP Hunter fluorescence, primary and confirmatory (AID 624330); format: functional
T5 sequence (Q9H0H5 whole entry): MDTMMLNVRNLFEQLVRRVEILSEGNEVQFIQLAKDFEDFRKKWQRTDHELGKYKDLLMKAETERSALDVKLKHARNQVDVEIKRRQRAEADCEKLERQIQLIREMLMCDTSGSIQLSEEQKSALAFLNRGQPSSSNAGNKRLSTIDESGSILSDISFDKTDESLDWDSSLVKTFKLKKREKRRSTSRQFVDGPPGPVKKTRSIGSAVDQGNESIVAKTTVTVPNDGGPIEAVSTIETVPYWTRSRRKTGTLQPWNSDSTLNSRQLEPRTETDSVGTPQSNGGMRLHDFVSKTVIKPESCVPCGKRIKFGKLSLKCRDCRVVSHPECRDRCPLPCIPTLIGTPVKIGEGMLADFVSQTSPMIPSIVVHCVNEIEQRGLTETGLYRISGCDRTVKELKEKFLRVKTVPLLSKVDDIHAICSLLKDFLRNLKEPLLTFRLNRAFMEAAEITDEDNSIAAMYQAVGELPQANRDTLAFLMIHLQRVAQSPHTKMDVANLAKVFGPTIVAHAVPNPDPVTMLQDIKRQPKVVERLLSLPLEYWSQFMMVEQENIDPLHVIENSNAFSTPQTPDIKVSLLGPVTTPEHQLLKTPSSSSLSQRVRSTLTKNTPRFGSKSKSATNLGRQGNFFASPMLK

Q: Which results are given for `CC(C)(C)C(=O)NC(=S)NNC(=O)c1sc2ccccc2c1Cl`?
A: EC50 [1]: 0.267 µM (active); AC50 [2]: 3.26 µM (active); EC50 [3]: 3.06 µM (active); CC50 [4]: 6.74 µM (active); AC50 [5]: 19.1 µM (active); EC50 [6]: 2.54 µM (inconclusive); EC50 [7]: 1.35 µM (active); AC50 [8]: 12.1 µM (active); AC50 [9]: 1.54 µM (active)

Q: For `CN(C)CCNc1nc(S(=O)(=O)c2ccccc2)c(Cl)s1`, which IC50 (Aminopeptidase N) is on record?
A: The IC50 was 51.9 µM (active).

Q: With `Clc1ccc(Cl)c(OCCCCNCc2ccccc2)c1` as the molecule, how does the CC50 [10] read?
A: Its CC50 is 38.1 µM (active).

Q: And the IC50 (cells)?
A: The IC50 was 36.9 µM (active).

Q: Which AC50 (Cytochrome P450 3A4) does the source give for `Cn1cccc1C(=O)N1CCC2(CC1)CN(C(c1ccccc1)c1ccccc1)C2` here?
A: Its AC50 is “inconclusive”.

Q: And the AC50 (Cytochrome P450 2C9)?
A: Its AC50 is 39.8 µM (inconclusive).

Q: And the AC50 (Cytochrome P450 1A2)?
A: Its AC50 is 31.6 µM (inconclusive).

Q: With `Clc1ccc(OCCCNCc2ccccc2)c2ccccc12` as the molecule, how does the CC50 [10] read?
A: The CC50 was 23.6 µM (active).

Q: And the IC50 (cells)?
A: Its IC50 is 12.2 µM (active).

Q: And the CC50 (Vero)?
A: Its CC50 is > 25 µM (active).

Q: What does the source list for `O=C(c1ccco1)N1CCC2(CC1)CN(c1ccccn1)C2`?
A: AC50 (Cytochrome P450 3A4): inconclusive; AC50 (Cytochrome P450 2D6): 15.8 µM (inconclusive)

Q: Which results are given for `O=C(O)/C(=C\c1ccccc1)Cc1ccccc1`?
A: AC50 (Cytochrome P450 3A4): inconclusive; AC50 (Cytochrome P450 2C9): 3.98 µM (inconclusive)

Q: Which CC50 [10] does the source give for `Cc1ccc(/C=C2\SC(=S)N(C3CCS(=O)(=O)C3)C2=O)o1` (centres undefined) here?
A: Its CC50 is > 40 µM (active).

Q: With `COCC(=O)N1CCC2(CC1)CCN(C(c1ccccc1)c1ccccc1)CC2` as the molecule, how does the AC50 (Cytochrome P450 3A4) read?
A: The AC50 was “inconclusive”.

Q: With `COC(=O)N1CCC2(CC1)CCN(c1ccccc1)CC2` as the molecule, how does the AC50 (Cytochrome P450 2C19) read?
A: Its AC50 is 5.01 µM (inconclusive).

Q: And the AC50 (Cytochrome P450 3A4)?
A: Its AC50 is “inconclusive”.

Q: For `CCN(CC)S(=O)(=O)c1ccc2c(c1)c(=O)c(C(=O)NCc1ccco1)cn2C`, which IC50 (Prothrombin) is on record?
A: The IC50 was 2.14 µM (active).

Q: What about the EC50 [3] of the same molecule?
A: The EC50 was > 195 µM (not active).

Q: With `O=C(Oc1ccccc1)N1CCC2(CC1)CN(c1ccccn1)C2` as the molecule, how does the AC50 (Cytochrome P450 3A4) read?
A: Its AC50 is “inconclusive”.

Q: For `CCN1CCN(c2c(Cl)cccc2NC(=O)c2ccc3nsnc3c2)CC1`, which EC50 [1] is on record?
A: Its EC50 is 0.668 µM (active).

Q: For `Cc1ccc(OCC(=O)N2CCN(C(=O)CCC3CCCC3)CC2)cc1`, which IC50 (Aminopeptidase N) is on record?
A: Its IC50 is 57.3 µM (active).

Q: For `Oc1ccc(Cl)cc1/N=C/c1c[nH]nc1O`, which IC50 (Aminopeptidase N) is on record?
A: The IC50 was 14.3 µM (active).

Q: What about the IC50 [11] of the same molecule?
A: The IC50 was 30 µM (active).

Q: Which EC50 [1] does the source give for `COC(=O)c1ccc(N2CCN(C)CC2)c(NC(=O)c2cccs2)c1` here?
A: The EC50 was 2.11 µM (active).
